Results reported in ChEMBL document CHEMBL1201861, “Genomics of Drug Sensitity in Cancer screening data, Wellcome Trust Sanger Institute”.

Experiments:
Assay in all cases: cells
Settings in all cases: Homo sapiens
MC116 = type: functional, cell-based;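 further: growth inhibition of MC116 cells, read out with a cell viability assay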
Description: SANGER: Inhibition of human MC116 cell growth in a cell viability assay.

ATN-1 = type: functional, cell-based;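 further: growth inhibition of human ATN-1 cells, read out with a cell viability assay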
Description: SANGER: Inhibition of human ATN-1 cell growth in a cell viability assay.

CTV-1 = type: functional, cell-based;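 further: growth inhibition of the cell line, read out with a cell viability assay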
Description: SANGER: Inhibition of human CTV-1 cell growth in a cell viability assay.

TGBC1TKB = type: functional, cell-based;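 further: growth inhibition of TGBC1TKB cells, read out by a cell viability assay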
Description: SANGER: Inhibition of human TGBC1TKB cell growth in a cell viability assay.

RS4-11 = type: functional, cell-based;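 further: growth inhibition of RS4-11 cells, read out by a cell viability assay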
Description: SANGER: Inhibition of human RS4-11 cell growth in a cell viability assay.

DMS-114 = type: functional, cell-based
NCI-H1092 = type: functional, cell-based;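 further: cell growth inhibition measured with a cell viability assay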
Description: SANGER: Inhibition of human NCI-H1092 cell growth in a cell viability assay.

SNB-75 = type: functional, cell-based;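 further: cell viability assay measuring growth inhibition of human SNB-75 cells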
Description: SANGER: Inhibition of human SNB75 cell growth in a cell viability assay.

NCI-H226 = type: functional, cell-based;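 further: cell viability read-out used to gauge growth inhibition of the cells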
Description: SANGER: Inhibition of human NCI-H226 cell growth in a cell viability assay.

TE-12 = type: functional, cell-based;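 further: growth inhibition of TE-12 cells, read out by a cell viability assay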
Description: SANGER: Inhibition of human TE-12 cell growth in a cell viability assay.

DMS-79 = type: functional, cell-based;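 further: growth inhibition measured with a cell viability assay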
Description: SANGER: Inhibition of human DMS-79 cell growth in a cell viability assay.

IST-SL1 = type: functional, cell-based;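 further: growth inhibition of human IST-SL1 cells, read out with a cell viability assay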
Description: SANGER: Inhibition of human IST-SL1 cell growth in a cell viability assay.

BB65-RCC = type: functional, cell-based;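 further: growth inhibition of the cell line, measured with a cell viability assay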
Description: SANGER: Inhibition of human BB65-RCC cell growth in a cell viability assay.

EW-24 = type: functional, cell-based;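 further: human EW-24 cancer cell line, growth inhibition read out via a cell viability assay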
Description: SANGER: Inhibition of human EW-24 cell growth in a cell viability assay.

NH-12 = type: functional, cell-based;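 further: growth inhibition of NH-12 cells, read out with a cell viability assay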
Description: SANGER: Inhibition of human NH-12 cell growth in a cell viability assay.

A498 = type: functional, cell-based;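 further: growth inhibition of human A498 cells, read out with a cell viability assay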
Description: SANGER: Inhibition of human A498 cell growth in a cell viability assay.

KALS-1 = type: functional, cell-based;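 further: growth inhibition of KALS-1 cells, determined with a cell viability assay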
Description: SANGER: Inhibition of human KALS-1 cell growth in a cell viability assay.

no-10 = type: functional, cell-based;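 further: growth inhibition of no-10 cells, read out with a cell viability assay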
Description: SANGER: Inhibition of human no-10 cell growth in a cell viability assay.

HAL-01 = type: functional, cell-based;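 further: growth inhibition of human HAL-01 cells, read out with a cell viability assay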
Description: SANGER: Inhibition of human HAL-01 cell growth in a cell viability assay.

MFM-223 = type: functional, cell-based
Description: SANGER: Inhibition of human MFM-223 cell growth in a cell viability assay.

KU812 cell line = type: functional, cell-based;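 further: growth inhibition of KU812 cells, read out with a cell viability assay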
Description: SANGER: Inhibition of human KU812 cell growth in a cell viability assay.

EOL1 = type: functional, cell-based;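 further: growth inhibition of EoL-1 cells, read out by a cell viability assay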
Description: SANGER: Inhibition of human EoL-1-cell cell growth in a cell viability assay.

HD-MY-Z = type: functional, cell-based;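 further: growth inhibition of HD-MY-Z cells, read out with a cell viability assay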
Description: SANGER: Inhibition of human HD-MY-Z cell growth in a cell viability assay.

NCI-H1395 = type: functional, cell-based;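 further: cell viability assay read-out quantifying reduced proliferation of human NCI-H1395 cells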
Description: SANGER: Inhibition of human NCI-H1395 cell growth in a cell viability assay.

NCI-H2126 = type: functional, cell-based;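 further: growth inhibition of the cancer cell line, determined with a cell viability readout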
Description: SANGER: Inhibition of human NCI-H2126 cell growth in a cell viability assay.

JVM-2 = type: functional, cell-based;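 further: growth inhibition of JVM-2 cells determined by a cell viability assay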
Description: SANGER: Inhibition of human JVM-2 cell growth in a cell viability assay.

HT-144 = type: functional, cell-based
Description: SANGER: Inhibition of human HT-144 cell growth in a cell viability assay.

EC-GI-10 = type: functional, cell-based
Description: SANGER: Inhibition of human EC-GI-10 cell growth in a cell viability assay.

SK-N-DZ = type: functional, cell-based;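 further: growth inhibition of the cancer cell line, read out through a viability assay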
Description: SANGER: Inhibition of human SK-N-DZ cell growth in a cell viability assay.

BV-173 = type: functional, cell-based
Description: SANGER: Inhibition of human BV-173 cell growth in a cell viability assay.

SK-UT-1 = type: functional, cell-based;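 further: growth inhibition of SK-UT-1 cells, measured by a cell viability assay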
Description: SANGER: Inhibition of human SK-UT-1 cell growth in a cell viability assay.

HCC1187 = type: functional, cell-based;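 further: growth inhibition of HCC1187 cells, read out with a cell viability assay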
Description: SANGER: Inhibition of human HCC1187 cell growth in a cell viability assay.

LC-2-ad = type: functional, cell-based;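 further: growth inhibition of human LC-2-ad cells, read out with a cell viability assay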
Description: SANGER: Inhibition of human LC-2-ad cell growth in a cell viability assay.

NB13 = type: functional, cell-based;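 further: cell viability readout measuring growth inhibition of human NB13 cells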
Description: SANGER: Inhibition of human NB13 cell growth in a cell viability assay.

SW872 = type: functional, cell-based;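 further: growth inhibition of SW872 cells, read out by a viability assay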
Description: SANGER: Inhibition of human SW872 cell growth in a cell viability assay.

ETK-1 = type: functional, cell-based;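 further: growth inhibition of human ETK-1 cells, read out with a cell viability assay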
Description: SANGER: Inhibition of human ETK-1 cell growth in a cell viability assay.

OVCAR-4 = type: functional, cell-based;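 further: growth inhibition of human OVCAR-4 cells, measured with a cell viability assay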
Description: SANGER: Inhibition of human OVCAR-4 cell growth in a cell viability assay.

COLO-824 = type: functional, cell-based
Description: SANGER: Inhibition of human COLO-824 cell growth in a cell viability assay.

SW684 = type: functional, cell-based;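 further: growth inhibition of human SW684 cells, measured by a cell viability assay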
Description: SANGER: Inhibition of human SW684 cell growth in a cell viability assay.

OCUB-M = type: functional, cell-based;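 further: growth inhibition of the cancer cell line, read out through a cell viability assay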
Description: SANGER: Inhibition of human OCUB-M cell growth in a cell viability assay.

NCI-H720 = type: functional, cell-based;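 further: growth inhibition of human NCI-H720 cells determined by a cell viability assay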
Description: SANGER: Inhibition of human NCI-H720 cell growth in a cell viability assay.

RCC10RGB = type: functional, cell-based;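 further: growth inhibition of human RCC10RGB cells, read out by a cell viability assay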
Description: SANGER: Inhibition of human RCC10RGB cell growth in a cell viability assay.

L-428 = type: functional, cell-based
Description: SANGER: Inhibition of human L-428 cell growth in a cell viability assay.

OCI-AML2 = type: functional, cell-based;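 further: growth inhibition of OCI-AML2 cells, read out with a cell viability assay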
Description: SANGER: Inhibition of human OCI-AML2 cell growth in a cell viability assay.

OS-RC-2 = type: functional, cell-based;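 further: growth inhibition of human OS-RC-2 cells, measured by a cell viability assay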
Description: SANGER: Inhibition of human OS-RC-2 cell growth in a cell viability assay.

NCI-H1304 = type: functional, cell-based;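 further: growth inhibition of the cancer cell line, measured in a cell viability assay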
Description: SANGER: Inhibition of human NCI-H1304 cell growth in a cell viability assay.

CAS-1 = type: functional, cell-based;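 further: growth inhibition of CAS-1 cells, measured with a cell viability assay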
Description: SANGER: Inhibition of human CAS-1 cell growth in a cell viability assay.

NCI-H510A = type: functional, cell-based;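 further: growth inhibition of NCI-H510A cells, read out with a cell viability assay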
Description: SANGER: Inhibition of human NCI-H510A cell growth in a cell viability assay.

A3-KAW = type: functional, cell-based;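 further: growth inhibition of human A3-KAW cells, read out with a cell viability assay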
Description: SANGER: Inhibition of human A3-KAW cell growth in a cell viability assay.

SCH = type: functional, cell-based;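 further: growth inhibition of human SCH cells, read out in a cell viability assay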
Description: SANGER: Inhibition of human SCH cell growth in a cell viability assay.

MPP-89 = type: functional, cell-based;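 further: growth inhibition of human MPP-89 cells, read out with a cell viability assay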
Description: SANGER: Inhibition of human MPP-89 cell growth in a cell viability assay.

LB2518-MEL = type: functional, cell-based;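 further: growth inhibition of human LB2518-MEL cells, measured with a cell viability assay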
Description: SANGER: Inhibition of human LB2518-MEL cell growth in a cell viability assay.

NCI-H23 = type: functional, cell-based;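 further: cell viability assay measuring growth inhibition of NCI-H23 cells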
Description: SANGER: Inhibition of human NCI-H23 cell growth in a cell viability assay.

GAK = type: functional, cell-based;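 further: cell growth inhibition read out by a cell viability assay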
Description: SANGER: Inhibition of human GAK cell growth in a cell viability assay.

SHP77 = type: functional, cell-based, SHP-77;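 further: growth inhibition of human SHP-77 cells measured by a cell viability assay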
Description: SANGER: Inhibition of human SHP-77 cell growth in a cell viability assay.

Calu-6 = type: functional, cell-based
Description: SANGER: Inhibition of human Calu-6 cell growth in a cell viability assay.

DEL = type: functional, cell-based
Description: SANGER: Inhibition of human DEL cell growth in a cell viability assay.

LU-139 = type: functional, cell-based
Description: SANGER: Inhibition of human LU-139 cell growth in a cell viability assay.

RH-1 = type: functional, cell-based
Description: SANGER: Inhibition of human RH-1 cell growth in a cell viability assay.

DSH1 = type: functional, cell-based
Description: SANGER: Inhibition of human DSH1 cell growth in a cell viability assay.

NCI-H1770 = type: functional, cell-based
Description: SANGER: Inhibition of human NCI-H1770 cell growth in a cell viability assay.

COLO-829 = type: functional, cell-based
Description: SANGER: Inhibition of human COLO-829 cell growth in a cell viability assay.

NCI-H82 = type: functional, cell-based
Description: SANGER: Inhibition of human NCI-H82 cell growth in a cell viability assay.

MZ2-MEL = type: functional, cell-based
Description: SANGER: Inhibition of human MZ2-MEL cell growth in a cell viability assay.

SK-N-FI = type: functional, cell-based
Description: SANGER: Inhibition of human SK-N-FI cell growth in a cell viability assay.

LAMA-84 = type: functional, cell-based
Description: SANGER: Inhibition of human LAMA-84 cell growth in a cell viability assay.

C[C@]1(c2nc3c(C(N)=O)cccc3[nH]2)CCCN1 [VELIPARIB]
IC50 (MC116): > 5000 nM
IC50 (ATN-1): > 5000 nM
IC50 (CTV-1): > 5000 nM
IC50 (TGBC1TKB): > 5000 nM
IC50 (RS4-11): > 5000 nM
IC50 (DMS-114): > 5000 nM
IC50 (NCI-H1092): > 5000 nM
IC50 (SNB-75): > 5000 nM
IC50 (NCI-H226): > 5000 nM
IC50 (TE-12): > 5000 nM
IC50 (DMS-79): > 5000 nM
IC50 (IST-SL1): > 5000 nM
IC50 (BB65-RCC): > 5000 nM
IC50 (EW-24): > 5000 nM
IC50 (NH-12): > 5000 nM
IC50 (A498): > 5000 nM
IC50 (KALS-1): > 5000 nM
IC50 (no-10): > 5000 nM
IC50 (HAL-01): > 5000 nM
IC50 (MFM-223): > 5000 nM
IC50 (KU812 cell line): > 5000 nM
IC50 (EOL1): 1080 nM
IC50 (HD-MY-Z): > 5000 nM
IC50 (NCI-H1395): > 5000 nM
IC50 (NCI-H2126): > 5000 nM
IC50 (JVM-2): > 5000 nM
IC50 (HT-144): > 5000 nM
IC50 (EC-GI-10): > 5000 nM
IC50 (SK-N-DZ): > 5000 nM
IC50 (BV-173): > 5000 nM
IC50 (SK-UT-1): > 5000 nM
IC50 (HCC1187): > 5000 nM
IC50 (LC-2-ad): > 5000 nM
IC50 (NB13): > 5000 nM
IC50 (SW872): > 5000 nM
IC50 (ETK-1): > 5000 nM
IC50 (OVCAR-4): > 5000 nM
IC50 (COLO-824): > 5000 nM
IC50 (SW684): > 5000 nM
IC50 (OCUB-M): > 5000 nM
IC50 (NCI-H720): > 5000 nM
IC50 (RCC10RGB): > 5000 nM
IC50 (L-428): > 5000 nM
IC50 (OCI-AML2): > 5000 nM
IC50 (OS-RC-2): > 5000 nM
IC50 (NCI-H1304): > 5000 nM
IC50 (CAS-1): > 5000 nM
IC50 (NCI-H510A): > 5000 nM
IC50 (A3-KAW): > 5000 nM
IC50 (SCH): > 5000 nM
IC50 (MPP-89): > 5000 nM
IC50 (LB2518-MEL): > 5000 nM
IC50 (NCI-H23): > 5000 nM
IC50 (GAK): > 5000 nM
IC50 (SHP77): > 5000 nM
IC50 (Calu-6): > 5000 nM
IC50 (DEL): > 5000 nM
IC50 (LU-139): > 5000 nM
IC50 (RH-1): > 5000 nM
IC50 (DSH1): > 5000 nM
IC50 (NCI-H1770): > 5000 nM
IC50 (COLO-829): > 5000 nM
IC50 (NCI-H82): > 5000 nM
IC50 (MZ2-MEL): > 5000 nM
IC50 (SK-N-FI): > 5000 nM
IC50 (LAMA-84): > 5000 nM

Cc1n[nH]c2ccc(-c3cncc(OC[C@@H](N)Cc4c[nH]c5ccccc45)c3)cc12 [A-443654]
IC50 (MC116): 137 nM
IC50 (ATN-1): > 1020 nM
IC50 (CTV-1): 323 nM
IC50 (TGBC1TKB): 120 nM
IC50 (RS4-11): 168 nM
IC50 (DMS-114): 983 nM
IC50 (NCI-H1092): 938 nM
IC50 (SNB-75): 116 nM
IC50 (NCI-H226): > 1020 nM
IC50 (TE-12): 194 nM
IC50 (DMS-79): 750 nM
IC50 (IST-SL1): 434 nM
IC50 (BB65-RCC): 597 nM
IC50 (EW-24): 837 nM
IC50 (NH-12): > 1020 nM
IC50 (A498): > 1020 nM
IC50 (KALS-1): 203 nM
IC50 (no-10): 129 nM
IC50 (HAL-01): > 1020 nM
IC50 (MFM-223): > 1020 nM
IC50 (KU812 cell line): 96.5 nM
IC50 (EOL1): 165 nM
IC50 (HD-MY-Z): > 1020 nM
IC50 (NCI-H1395): > 1020 nM
IC50 (NCI-H2126): 309 nM
IC50 (JVM-2): > 1020 nM
IC50 (HT-144): 153 nM
IC50 (EC-GI-10): > 1020 nM
IC50 (SK-N-DZ): > 1020 nM
IC50 (BV-173): 269 nM
IC50 (SK-UT-1): 81.4 nM
IC50 (HCC1187): > 1020 nM
IC50 (LC-2-ad): 22.2 nM
IC50 (NB13): 332 nM
IC50 (SW872): 255 nM
IC50 (ETK-1): 101 nM
IC50 (OVCAR-4): 243 nM
IC50 (COLO-824): > 1020 nM
IC50 (SW684): > 1020 nM
IC50 (OCUB-M): 25.7 nM
IC50 (NCI-H720): 154 nM
IC50 (RCC10RGB): > 1020 nM
IC50 (L-428): > 1020 nM
IC50 (OCI-AML2): 210 nM
IC50 (OS-RC-2): 175 nM
IC50 (NCI-H1304): 163 nM
IC50 (CAS-1): > 1020 nM
IC50 (NCI-H510A): 229 nM
IC50 (A3-KAW): 196 nM
IC50 (SCH): > 1020 nM
IC50 (MPP-89): 485 nM
IC50 (LB2518-MEL): 397 nM
IC50 (NCI-H23): > 1020 nM
IC50 (GAK): > 1020 nM
IC50 (SHP77): > 1020 nM
IC50 (Calu-6): 137 nM
IC50 (DEL): 231 nM
IC50 (LU-139): 367 nM
IC50 (RH-1): > 1020 nM
IC50 (DSH1): 361 nM
IC50 (NCI-H1770): > 1020 nM
IC50 (COLO-829): > 1020 nM
IC50 (NCI-H82): 164 nM
IC50 (MZ2-MEL): > 1020 nM
IC50 (SK-N-FI): 845 nM
IC50 (LAMA-84): 610 nM
